Data from patent US12209102B2, “Heterocyclic compounds and uses thereof” (Kumquat Biosciences Inc., priority 2022, dated 2025).

Tests used:
A549 cells = experiment: Ras cellular assay, growth of cells with K-Ras G12S mutation (CellTiter-Glo); type: cell-based; conditions: Homo sapiens, cell growth, Example 9, G12S mutation, read-out: IC50 against A549 cells
Experimental: (§1) For example, this assay can be also used to assess a selective growth inhibition of a mutant Ras protein relative to a wildtype, or relative to a different mutant Ras protein.
(§2) A549 (ATCC CCL-185) and LS123 (ATCC CCL-255) cell lines comprise a G12S mutation and can be used to assess Ras cellular signaling in vitro, e.g., in response to the compounds herein. A549 culture medium is prepared with RPMI-1640 and 10% heat-inactivated FBS. LS123 culture medium is prepared with RPMI-1640 and 10% heat-inactivated FBS. A CellTiter-Glo (CTG) luminescent based assay (Promega) is used to assess growth of the cells, as a measurement of the ability of the compounds herein to inhibit Ras signaling in the cells. The cells (e.g., 800 per well) are seeded in their respective culture medium in standard tissue culture-treated 384-well format plates (Falcon #08-772-116) or ultra-low attachment surface 384-well format plates (S-Bio #MS-9384WZ). The day after plating, cells are treated with a dilution series (e.g., a 10 point 3-fold dilution series) of the compounds herein (e.g., approximately 40 μL final volume per well). Cell viability can be monitored (e.g., approximately 6 days later) according to the manufacturer's recommended instructions, where the CellTiter-Glo reagent is added (e.g., approximately 10 μL), vigorously mixed, covered, and placed on a plate shaker (e.g., approximately for 20 min) to ensure sufficient cell lysis prior to assessment of luminescent signal. The IC50 values are determined using the four parameter fit. The resulting IC50 value is a measurement of the ability of the compounds herein to reduce cell growth of Ras-driven cells (e.g., tumor cell lines) in vitro and/or in vivo.

K-Ras G12D = biological target: T1, K-Ras G12D (Homo sapiens, UniProt P01116, G12D); experiment: HTRF resonance energy transfer assay, K-Ras G12D / SOS1 interaction; type: biochemical; conditions: HTRF assay of Example 5; read-out: IC50 against K-Ras G12D
T1 construct: made in house; host or cells: E. coli BL21 (DE3)
Summary of the method: (§3)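 GST-tagged K-Ras (WT or mutant) bound to anti-GST-Eu donor was mixed with His-hSOS1 bound to anti-6His-XL665 acceptor in ~5 mM HEPES pH 7.4, 150 mM NaCl, 1 mM DTT, 0.05% BSA, 0.0025% Igepal. HTRF (ex 337, em 620/665 nm) was read after ~10 min or longer. IC50 came from the 665/620 ratio over duplicates from 10 μM to 0.01 μM.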

K-Ras G12S = biological target: T2, K-Ras G12S (Homo sapiens, UniProt P01116, G12S); experiment: HTRF resonance energy transfer assay, K-Ras G12S / SOS1 interaction; type: biochemical; conditions: HTRF assay of Example 5; read-out: IC50 against K-Ras G12S
T2 construct: made in house; host or cells: E. coli BL21 (DE3)
Summary of the method: as §3

K-Ras G12V = biological target: T3, K-Ras G12V (Homo sapiens, UniProt P01116, G12V); experiment: HTRF resonance energy transfer assay, K-Ras G12V / SOS1 interaction; type: biochemical; conditions: HTRF assay of Example 5; read-out: IC50 against K-Ras G12V
T3 construct: made in house; host or cells: E. coli BL21 (DE3)
Summary of the method: as §3

K-Ras WT = biological target: T4, K-Ras WT (Homo sapiens, UniProt P01116); experiment: HTRF resonance energy transfer assay, K-Ras WT / SOS1 interaction; type: biochemical; conditions: HTRF assay of Example 5; read-out: IC50 against K-Ras WT
T4 construct: made in house; host or cells: E. coli BL21 (DE3)
Summary of the method: as §3

SW620 cells = experiment: Ras cellular assay, growth of cells with K-Ras G12V mutation (CellTiter-Glo); type: cell-based; conditions: Homo sapiens, SW-620; cell growth, Example 9, G12V mutation; read-out: IC50 against SW620 cells
Experimental: as §1
as §2, with “SW620” for “A549”, “CCL-227)” for “CCL-185)”, “Capan-1” for “LS123”, “HTB-79)” for “CCL-255)”, “G12V” for “G12S”

T1 sequence (P01116 1-188 isoform P01116-2 G12D): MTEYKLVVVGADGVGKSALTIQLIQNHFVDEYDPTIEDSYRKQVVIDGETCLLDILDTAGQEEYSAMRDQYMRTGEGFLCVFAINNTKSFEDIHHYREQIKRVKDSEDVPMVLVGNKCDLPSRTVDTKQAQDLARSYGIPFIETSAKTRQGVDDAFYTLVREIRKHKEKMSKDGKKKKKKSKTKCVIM
T4 sequence (P01116 1-188 isoform P01116-2): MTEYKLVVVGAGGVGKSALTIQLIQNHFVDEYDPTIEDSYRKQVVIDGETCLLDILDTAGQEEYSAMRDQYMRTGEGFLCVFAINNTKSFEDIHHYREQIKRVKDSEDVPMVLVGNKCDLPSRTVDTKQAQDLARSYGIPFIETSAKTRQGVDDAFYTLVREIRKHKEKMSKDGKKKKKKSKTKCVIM
T2 sequence (P01116 1-188 isoform P01116-2 G12S): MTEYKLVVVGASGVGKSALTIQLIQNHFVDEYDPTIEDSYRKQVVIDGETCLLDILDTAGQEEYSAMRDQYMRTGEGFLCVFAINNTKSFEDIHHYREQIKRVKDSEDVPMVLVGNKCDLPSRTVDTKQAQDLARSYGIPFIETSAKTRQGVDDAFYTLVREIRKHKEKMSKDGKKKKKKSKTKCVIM
T3 sequence (P01116 1-188 isoform P01116-2 G12V): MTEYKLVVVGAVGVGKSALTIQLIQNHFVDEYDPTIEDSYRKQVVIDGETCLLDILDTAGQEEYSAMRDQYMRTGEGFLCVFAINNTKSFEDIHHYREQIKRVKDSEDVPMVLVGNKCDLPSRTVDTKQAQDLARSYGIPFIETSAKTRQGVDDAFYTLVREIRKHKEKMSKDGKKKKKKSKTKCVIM

SMILES: C[C@H]1COc2c(Cl)c(-c3ccc(F)c4sc(N)c(C#N)c34)c(F)c3nc(OC[C@@]45CCCN4C[C@H](F)C5)nc(c23)N1CC(F)F [Compound 658, 2-amino-4-((5S)-8-chloro-4-(2,2-difluoroethyl)-10-fluoro-2-(((2R,7aS)-2-fluorotetrahydro-1H-pyrrolizin-7a(5H)-yl)methoxy)-5-methyl-5,6-dihydro-4H-[1,4]oxazepino[5,6,7-de]quinazolin-9-yl)-7-fluorobenzo[b]thiophene-3-carbonitrile]
- IC50 (A549 cells): < 5000 nM

SMILES: N#Cc1c(N)sc2c(F)ccc(-c3c(Cl)c4c5c(nc(OC[C@@]67CCCN6C[C@H](F)C7)nc5c3F)N(CC3CCCN3C(=O)C3CN3)CCO4)c12 (stereo partly drawn) [Compound 811, 2-amino-4-(4-((1-(aziridine-2-carbonyl)pyrrolidin-2-yl)methyl)-8-chloro-10-fluoro-2-(((2R,7aS)-2-fluorotetrahydro-1H-pyrrolizin-7a(5H)-yl)methoxy)-5,6-dihydro-4H-[1,4]oxazepino[5,6,7-de]quinazolin-9-yl)-7-fluorobenzo[b]thiophene-3-carbonitrile]
- IC50 (K-Ras G12D): < 100 nM
- IC50 (K-Ras G12S): < 100 nM
- IC50 (K-Ras G12V): < 100 nM
- IC50 (K-Ras WT): < 100 nM
- IC50 (SW620 cells): < 5000 nM

SMILES: C[C@H]1COc2c(Cl)c(-c3ccc(F)c4sc(N)c(C#N)c34)c(F)c3nc(OC[C@@]45CCCN4C[C@H](F)C5)nc(c23)N1CC1CC1C#N (stereo partly drawn) [Compound 818, 2-amino-4-((5S)-8-chloro-4-((2-cyanocyclopropyl)methyl)-10-fluoro-2-(((2R,7aS)-2-fluorotetrahydro-1H-pyrrolizin-7a(5H)-yl)methoxy)-5-methyl-5,6-dihydro-4H-[1,4]oxazepino[5,6,7-de]quinazolin-9-yl)-7-fluorobenzo[b]thiophene-3-carbonitrile]
- IC50 (K-Ras G12D): < 100 nM
- IC50 (K-Ras G12S): < 100 nM
- IC50 (K-Ras G12V): < 100 nM
- IC50 (K-Ras WT): < 100 nM
- IC50 (SW620 cells): < 5000 nM

SMILES: N#Cc1c(N)sc2c(F)ccc(-c3c(Cl)c4c5c(nc(OC[C@@]67CCCN6C[C@H](F)C7)nc5c3F)N(C3CCCCC(O)C3)CCO4)c12 (stereo partly drawn) [Compound 825, 2-amino-4-(8-chloro-10-fluoro-2-(((2R,7aS)-2-fluorotetrahydro-1H-pyrrolizin-7a(5H)-yl)methoxy)-4-(3-hydroxycycloheptyl)-5,6-dihydro-4H-[1,4]oxazepino[5,6,7-de]quinazolin-9-yl)-7-fluorobenzo[b]thiophene-3-carbonitrile]
- IC50 (A549 cells): < 5000 nM

SMILES: N#Cc1c(N)sc2c(F)ccc(-c3c(Cl)c4c5c(nc(OC[C@@]67CCCN6C[C@H](F)C7)nc5c3F)N(CC3CC3C#N)[C@@H](C(F)F)CO4)c12 (stereo partly drawn) [Compound 853, 2-amino-4-((5R)-8-chloro-4-((2-cyanocyclopropyl)methyl)-5-(difluoromethyl)-10-fluoro-2-(((2R,7aS)-2-fluorotetrahydro-1H-pyrrolizin-7a(5H)-yl)methoxy)-5,6-dihydro-4H-[1,4]oxazepino[5,6,7-de]quinazolin-9-yl)-7-fluorobenzo[b]thiophene-3-carbonitrile]
- IC50 (K-Ras G12D): < 100 nM
- IC50 (K-Ras G12S): < 100 nM
- IC50 (K-Ras G12V): < 100 nM
- IC50 (K-Ras WT): < 100 nM
- IC50 (SW620 cells): < 5000 nM

SMILES: N#Cc1c(N)sc2c(F)ccc(-c3c(Cl)c4c5c(nc(OC[C@@]67CCCN6C[C@H](F)C7)nc5c3F)N(C3CCC(N)C3)CCO4)c12 (stereo partly drawn) [Compound 907, 2-amino-4-(4-(3-aminocyclopentyl)-8-chloro-10-fluoro-2-(((2R,7aS)-2-fluorotetrahydro-1H-pyrrolizin-7a(5H)-yl)methoxy)-5,6-dihydro-4H-[1,4]oxazepino[5,6,7-de]quinazolin-9-yl)-7-fluorobenzo[b]thiophene-3-carbonitrile]
- IC50 (K-Ras G12D): < 100 nM
- IC50 (K-Ras G12S): < 100 nM
- IC50 (K-Ras G12V): < 100 nM
- IC50 (K-Ras WT): < 100 nM
- IC50 (SW620 cells): < 5000 nM

SMILES: N#Cc1c(N)sc2c(F)ccc(-c3c(Cl)c4c5c(nc(OC[C@@]67CCCN6C[C@H](F)C7)nc5c3F)N(CC(F)F)[C@@H](CNC(=O)[C@H]3CN3)CO4)c12 [Compound 1053, (2R)-N-(((5S)-9-(2-amino-3-cyano-7-fluorobenzo[b]thiophen-4-yl)-8-chloro-4-(2,2-difluoroethyl)-10-fluoro-2-(((2R,7aS)-2-fluorotetrahydro-1H-pyrrolizin-7a(5H)-yl)methoxy)-5,6-dihydro-4H-[1,4]oxazepino[5,6,7-de]quinazolin-5-yl)methyl)aziridine-2-carboxamide]
- IC50 (K-Ras G12D): < 100 nM
- IC50 (K-Ras G12S): < 100 nM
- IC50 (K-Ras G12V): < 100 nM
- IC50 (K-Ras WT): < 100 nM
- IC50 (SW620 cells): < 5000 nM

SMILES: N#Cc1c(N)sc2c(F)ccc(-c3c(Cl)c4c5c(nc(OC[C@@]67CCCN6C[C@H](F)C7)nc5c3F)N(C3CC3)[C@@H](CNC=O)CO4)c12 [Compound 1084, N-(((5S)-9-(2-amino-3-cyano-7-fluorobenzo[b]thiophen-4-yl)-8-chloro-4-cyclopropyl-10-fluoro-2-(((2R,7aS)-2-fluorotetrahydro-1H-pyrrolizin-7a(5H)-yl)methoxy)-5,6-dihydro-4H-[1,4]oxazepino[5,6,7-de]quinazolin-5-yl)methyl)formamide]
- IC50 (K-Ras G12D): < 100 nM
- IC50 (K-Ras G12S): < 100 nM
- IC50 (K-Ras G12V): < 100 nM
- IC50 (K-Ras WT): < 100 nM
- IC50 (SW620 cells): < 5000 nM

SMILES: N#Cc1c(N)sc2c(F)ccc(-c3c(Cl)c4c5c(nc(OC[C@@]67CCCN6C[C@H](F)C7)nc5c3F)N([C@H]3CNC[C@@H]3F)CCO4)c12 [Compound 1085, 2-amino-4-(8-chloro-10-fluoro-4-((3S,4S)-4-fluoropyrrolidin-3-yl)-2-(((2R,7aS)-2-fluorotetrahydro-1H-pyrrolizin-7a(5H)-yl)methoxy)-5,6-dihydro-4H-[1,4]oxazepino[5,6,7-de]quinazolin-9-yl)-7-fluorobenzo[b]thiophene-3-carbonitrile]
- IC50 (K-Ras G12D): < 100 nM
- IC50 (K-Ras G12S): < 100 nM
- IC50 (K-Ras G12V): < 100 nM
- IC50 (K-Ras WT): < 100 nM
- IC50 (SW620 cells): < 5000 nM

SMILES: CN1c2nc(OC[C@@]34CCCN3C[C@H](F)C4)nc3c(F)c(-c4ccc(F)c5sc(N)c(C#N)c45)c(Cl)c(c23)OCC[C@H]1C1CC1 [Compound 1209, 2-amino-4-((5S)-9-chloro-5-cyclopropyl-11-fluoro-2-(((2R,7aS)-2-fluorotetrahydro-1H-pyrrolizin-7a(5H)-yl)methoxy)-4-methyl-4,5,6,7-tetrahydro-[1,5]oxazocino[4,3,2-de]quinazolin-10-yl)-7-fluorobenzo[b]thiophene-3-carbonitrile]
- IC50 (K-Ras G12D): < 100 nM
- IC50 (K-Ras G12S): < 100 nM
- IC50 (K-Ras G12V): < 100 nM
- IC50 (K-Ras WT): < 100 nM
- IC50 (SW620 cells): < 5000 nM

SMILES: CN1c2nc(OC[C@@]34CCCN3C[C@H](F)C4)nc3c(F)c(-c4ccc(F)c5sc(N)c(C#N)c45)c(Cl)c(c23)OCCC1CO (stereo partly drawn) [Compound 1217, 2-amino-4-(9-chloro-11-fluoro-2-(((2R,7aS)-2-fluorotetrahydro-1H-pyrrolizin-7a(5H)-yl)methoxy)-5-(hydroxymethyl)-4-methyl-4,5,6,7-tetrahydro-[1,5]oxazocino[4,3,2-de]quinazolin-10-yl)-7-fluorobenzo[b]thiophene-3-carbonitrile]
- IC50 (K-Ras G12D): < 100 nM
- IC50 (K-Ras G12S): < 100 nM
- IC50 (K-Ras G12V): < 100 nM
- IC50 (K-Ras WT): < 100 nM
- IC50 (SW620 cells): < 5000 nM
